Results from US20070265270A1, “Cinnoline derivatives as phosphodiesterase 10 inhibitors” (priority 2006, published 2007).

The compounds below were run against T1, mPDE10A7 (Mus musculus, UniProt Q8CA95) (assay: mPDE10A7 enzyme inhibition (IMAP fluorescence polarization)). Details: Table 3; fluorescein labeled cAMP or cGMP substrate.
T1 sequence (Q8CA95 446-763 limits assumed): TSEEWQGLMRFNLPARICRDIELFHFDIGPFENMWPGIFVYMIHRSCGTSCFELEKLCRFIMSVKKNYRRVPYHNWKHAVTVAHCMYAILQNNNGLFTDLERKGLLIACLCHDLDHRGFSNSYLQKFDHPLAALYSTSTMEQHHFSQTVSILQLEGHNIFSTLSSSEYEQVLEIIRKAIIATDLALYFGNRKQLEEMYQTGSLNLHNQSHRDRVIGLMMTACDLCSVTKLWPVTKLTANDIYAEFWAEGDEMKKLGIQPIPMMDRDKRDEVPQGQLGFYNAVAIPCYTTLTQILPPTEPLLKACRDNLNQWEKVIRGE
Type: biochemical
Procedure: Enzyme Activity: To analyze the enzyme activity, 5 μL of serial diluted mPDE10A7 containing lysate were incubated with equal volumes of diluted (100-fold) fluorescein labeled cAMP or cGMP for 30 minutes in MDC HE 96-well assay plates at room temperature. Both the enzyme and the substrates were diluted in the following assay buffer: Tris/HCl (pH 8.0) 50 mM, MgCl2 5 mM, 2-mercaptoethanol 4 mM, BSA 0.33 mg/mL. After incubation, the reaction was stopped by adding 20 μL of diluted (400-fold) binding reagents and was incubated for an hour at room temperature. The plates were counted in an Analyst GT (Molecular Devices) for fluorescence polarization. An IMAP Assay kit (Molecular Device) was used to assess enzyme properties of mPDE10A7. Data were analyzed with SoftMax Pro.
Enzyme Inhibition: To check the inhibition profile, 10 μL of serial diluted compounds were incubated with 30 μl of diluted PDE enzymes in a 96-well polystyrene assay plate for 30 minutes at room temperature. After incubation, 5 μL of the compound-enzyme mixture were aliquoted into a MDC HE black plate, mixed with 5 μl of 100-fold diluted fluorescein labeled substrates (cAMP or cGMP), and incubated for 30 minutes at room temperature. The reaction was stopped by adding 20 μL of diluted binding reagents and counted in an Analyst GT for fluorescence polarization. The data were analyzed with SoftMax Pro.

Structure (SMILES)	IC50
COc1ccc(CC2CCN(c3cnnc4cc(OC)c(OC)cc34)C2)cc1 (racemic) [Cpd 98]	26.6 nM
COc1cc2nncc(N3CCO[C@@H](c4ccc(C)cc4F)C3)c2cc1OC [Cpd 110]	2.86 nM
COc1cc2nncc(N3CCCC(CN4CCCC4=O)C3)c2cc1OC (racemic) [Cpd 62, 1-{[1-(6,7-dimethoxycinnolin-4-yl)piperidin-3-yl]methyl}pyrrolidin-2-one]	337 nM
COc1cc(OC)cc(C(=O)NC2CCCN(c3cnnc4cc(OC)c(OC)cc34)C2)c1 (racemic) [Cpd 121]	16.3 nM
COc1ccc2cc([C@@H]3CN(c4cnnc5cc(OC)c(OC)cc45)CCN3)ccc2c1 [Cpd 111]	10.3 nM
CCN1CCN(c2cccc3c2cnn3-c2cnnc3cc(OC)c(OC)cc23)CC1 [Cpd 48]	28.8 nM
COc1cc2nncc(N3CCCC(Oc4ccccc4)C3)c2cc1OC (racemic) [Cpd 37]	113 nM
CC[C@@H]1CN(c2cnnc3cc(OC)c(OC)cc23)C[C@@H](c2ccc(OC)cc2)O1 (racemic) [Cpd 100]	3.57 nM
COc1cc2nncc(-n3ncc4ccc(N5CCOCC5)cc43)c2cc1OC [Cpd 21, 6,7-dimethoxy-4-(6-morpholin-4-yl-1H-indazol-1-yl)cinnoline]	554 nM
COc1ccc2cc(C3CN(c4cnnc5cc(OC)c(OC)cc45)CCN3)ccc2c1 (racemic) [Cpd 86]	1.33 nM
COc1cccc(C2CN(c3cnnc4cc(OC)c(OC)cc34)C(=O)CO2)c1 (racemic) [Cpd 52, 4-(6,7-dimethoxycinnolin-4-yl)-6-(3-methoxyphenyl)morpholin-3-one]	310 nM
COc1cc2nncc(N3CCCC(C(=O)N4CCCCC4)C3)c2cc1OC (racemic) [Cpd 39]	378 nM
COc1cc2nncc(-c3nc4ccccc4o3)c2cc1OC [Cpd 1, 4-(1,3-benzoxazol-2-yl)-6,7-dimethoxycinnoline hydroformate]	218 nM
COc1ccc(CNC2CCN(c3cnnc4cc(OC)c(OC)cc34)CC2)cc1 [Cpd 78, 1-(6,7-dimethoxycinnolin-4-yl)-N-(4-methoxybenzyl)piperidin-4-amine]	1390 nM
COc1cc2nncc(N3CCC(N4CCCC4=O)CC3)c2cc1OC [Cpd 85]	286 nM
COc1cc2nncc(-c3ccc4c(c3)OCCN4C)c2cc1OC [Cpd 8, 7-(6,7-dimethoxycinnolin-4-yl)-4-methyl-3,4-dihydro-2H-1,4-benzoxazine]	23 nM
COc1ccc(C2CN(c3cnnc4cc(OC)c(OC)cc34)CC(=O)N2C)cc1 (racemic) [Cpd 65]	46.1 nM
COc1cc2nncc(N3CCCC(c4nc(C)no4)C3)c2cc1OC (stereo not shown) [Cpd 56]	190 nM
COc1ccc(N2CCC=C(c3cnnc4cc(OC)c(OC)cc34)C2)cc1 [Cpd 101]	6.51 nM
COc1cc2nncc(N3CCCC(C4CCCCC4)C3)c2cc1OC (racemic) [Cpd 104]	263 nM
COc1cc2nncc(-n3ncc4c(N5CCCC5)cccc43)c2cc1OC [Cpd 73, 6,7-dimethoxy-4-(4-pyrrolidin-1-yl-1H-indazol-1-yl)cinnoline]	96.1 nM
COc1cc2nncc(-n3ncc4c(N5CCN(CC6CC6)CC5)cccc43)c2cc1OC [Cpd 50, 4-{4-[4-(cyclopropylmethyl)piperazin-1-yl]-1H-indazol-1-yl}-6,7-dimethoxycinnoline]	63.1 nM
COc1cc2nncc(N3CCOC(c4ccc(OC(F)(F)F)cc4)C3)c2cc1OC (racemic) [Cpd 63]	29.2 nM

Other lines, results leading:

IC50	Structure (SMILES)
427 nM	COc1cc2nncc(N3CC(c4ccc(Cl)cc4)OCC3=O)c2cc1OC (racemic) [Cpd 40]
35.1 nM	COc1cc2nncc(N3CCCC(NC(=O)c4ccccc4F)C3)c2cc1OC (racemic) [Cpd 102]
1.6 nM	COc1cc2nncc(N3CCNC(c4ccc(N(C)C)cc4)C3)c2cc1OC (racemic) [Cpd 94]
152 nM	COc1cc2nncc(-n3ncc4c(Br)cccc43)c2cc1OC [Cpd 113, 4-(4-bromo-1H-indazol-1-yl)-6,7-dimethoxycinnoline]
58.4 nM	COc1cc2nncc(N3CCCC(N(C)C(=O)c4ccccc4)C3)c2cc1OC (stereo not shown) [Cpd 107]
18.7 nM	COc1cc2nncc(-c3ccc4c(c3)N(C)C(=O)C4(C)C)c2cc1OC [Cpd 76]
7.84 nM	COc1cc2nncc(N3CCNC(c4cccs4)C3)c2cc1OC (racemic) [Cpd 93]
261 nM	COc1cc2nncc(N3CCC(c4ccccc4)C3)c2cc1OC (racemic) [Cpd 12, 6,7-dimethoxy-4-(3-phenylpyrrolidin-1-yl)cinnoline]
152 nM	COc1cc2nncc(N3CCCC(n4ccccc4=O)C3)c2cc1OC (stereo not shown) [Cpd 51]
44 nM	CCN(C)c1cccc2c1cnn2-c1cnnc2cc(OC)c(OC)cc12 [Cpd 72]
402 nM	COc1cc2nncc(N3CCCC(C(=O)N4CCCC4)C3)c2cc1OC (racemic) [Cpd 32, 6,7-Dimethoxy-4-[3-(pyrrolidin-1-ylcarbonyl)piperidin-1-yl]cinnoline]
3.84 nM	COc1cc2nncc(N3CCOC(c4ccc(O)cc4)C3)c2cc1OC (racemic) [Cpd 74]
140 nM	COCCOc1ccc2cnn(-c3cnnc4cc(OC)c(OC)cc34)c2c1 [Cpd 19, 6,7-Dimethoxy-4-[6-(2-methoxyethoxy)-1H-indazol-1-yl]cinnoline]
14.1 nM	COc1cc2nncc(N3CCOC(c4ccccc4C)C3)c2cc1OC (racemic) [Cpd 96]
12 nM	COc1cc2nncc(N3CCNC(c4cccc5ccccc45)C3)c2cc1OC (racemic) [Cpd 103]
57.8 nM	COc1cc2nncc(N3CCOC(c4ccc(C)cc4F)C3)c2cc1OC (racemic) [Cpd 88]
7.01 nM	COc1cc2nncc(N3CCC[C@@H](c4ccccc4F)C3)c2cc1OC [Cpd 67]
19.2 nM	COc1ccc(C2(O)CCCN(c3cnnc4cc(OC)c(OC)cc34)C2)cc1 (stereo not shown) [Cpd 64]
141 nM	COc1cc2nncc(-n3nc(C(=O)NC4CC4)c4ccccc43)c2cc1OC [Cpd 3, N-cyclopropyl-1-(6,7-dimethoxycinnolin-4-yl)-1H-indazole-3-carboxamide hydroformate]
6.49 nM	COc1cc2nncc(N3CCOC(c4ccc5c(c4)CCO5)C3)c2cc1OC (racemic) [Cpd 38]
160 nM	COc1cc2nncc(N3CCNC(c4cc(OCc5ccccc5)cc(OCc5ccccc5)c4)C3)c2cc1OC (racemic) [Cpd 118]
16 nM	COc1cc2nncc(-n3ncc4c(N5CCN(C(C)=O)CC5)cccc43)c2cc1OC [Cpd 106]

Same assay, conditions: Table 4; fluorescein labeled cAMP or cGMP substrate

IC50	Structure (SMILES)
145 nM	COc1ccc(C2CN(c3cnnc4cc(O)c(OC)cc34)CCO2)cc1 (racemic) [compound 127]
